{"source": "patent US9834514B2", "about": "“Antibiotic sensitivity-restoring and photosensitive agents” (New Mexico Tech Research Foundation, priority 2015, dated 2017)", "key": {"[1]": {"system": "A. baumannii (ATCC 15151)", "experiment": "MIC against A. baumannii", "assay_type": "cell-based", "details": "Acinetobacter baumannii, ATCC15151", "procedure": "TABLE 28 details the individual MIC values of compounds 1, 7, 8, 9, 10, 11, PMB, PME, and light against A. baumannii.\nThe MICs of PME and compounds 8-11 were determined against A. baumannii (ATCC 15151). […] After incubating the cells with PME, a compound (5 μM) was added, and the samples were further incubated at 37° C. At specific time points, samples were taken and diluted ten-fold in media. Ten microliters of each dilution was then drip-streaked onto an agar plate and incubated overnight at 37° C. Colony counts were then performed, and the CFU/mL were calculated."}, "VRE": {"system": "VRE", "experiment": "Resensitization to antibiotics (log reduction, TABLE 29)", "assay_type": "cell-based, Enterococcus faecalis", "details": "compound 2 μM"}, "MRSA": {"system": "MRSA", "experiment": "Resensitization to antibiotics (log reduction, TABLE 29)", "assay_type": "cell-based, S. aureus", "details": "compound 1 μM; Oxacillin (100 μg/mL)", "procedure": "In a 96-well microtiter plate, two-fold dilutions were made of each drug (starting with 100 μM) in 100 μL of a cell suspension in TSB. The resulting samples were incubated overnight at 37° C. on a rotary shaking incubator at 100 rpm. The samples were then visually inspected for turbidity. A 20% well volume of MTT reagent (5 mg/mL) was subsequently added, and the samples were incubated for about 20 minutes."}, "[2]": {"experiment": "MIC against MRSA isolates", "assay_type": "cell-based, S. aureus", "details": "Staphylococcus aureus", "how_it_was_run": "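Broth microdilution in TSB, ~5×10^5 CFU/mL, two-fold dilutions from 100 μM, overnight at 37 °C shaking 100 rpm.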"}, "S. aureus (ATCC 29213)": {"system": "S. aureus (ATCC 29213)", "experiment": "microbe, parasite or virus in culture", "assay_type": "cell-based", "procedure": "Each mixture was incubated at 37° C. on a rotary shaking incubator for about 16 hours. MTT was then added to assess the viability of the cells (at 10% well volume). […] The cells were then streaked onto a TSA plate and incubated overnight at 37° C. These steps were repeated to reach a total of 30 exposures."}, "drug-resistant bacteria": {"system": "drug-resistant bacteria", "experiment": "Summary of synergistic activities with antibiotic families (TABLE 45)", "assay_type": "cell-based", "description": "TABLE 45 summarizes the synergistic activities of the seven classes of clinically used antibiotics and compounds of the invention against a variety of different drug-resistant bacteria."}, "P. aeruginosa": {"system": "P. aeruginosa", "experiment": "Cell killing with compounds and PME at fixed concentrations, with and without white light", "assay_type": "cell-based", "details": "20 μM compound and 0.1 μg/mL PME", "procedure": "FIG. 26 is an example of the treatment of P. aeruginosa with compound 1 and PME at fixed concentrations.\nP. aeruginosa cells were also treated with white light upon being incubated with compound 1 for different durations of time. In a 12×75 mm borosilicate glass culture tube, 1 mL of cell suspension was added. PME was added to the cells, and the samples were mixed using a vortex mixer. The resulting samples were incubated for 1.5 hours at 37° C. on a rotary shaking incubator at 100 rpm. Compound 1 was then added, and the samples were incubated for 30 minutes at 37° C. on a rotary shaking incubator at 100 rpm. The samples were then irradiated with white light using a Lumacare™ LC-122 for 2 minutes (irradiation λ1) and incubated overnight at 37° C. The samples were irradiated again with white light using a Lumacare™ LC-122 for 2 minutes (irradiation λ2). Ten-fold dilutions were made of each sample, and 10 μL of each dilution was drip-streaked onto an agar plate. The samples were incubated overnight at 37° C., and colony counts were performed to calculate CFU/mL.\nFIG. 55 is an illustrative example of the treatment of P. aeruginosa with compound 1, PME, co-treatment with compound 1 and PME, and co-treatment with compound 1, PME, and light (λ1 and λ2) at fixed concentrations."}}, "note": "Like-named read-outs stand apart in the source and are kept apart here.", "data": [{"smiles": "Clc1ccc(Oc2c(-c3ccc(Cl)cc3)[nH]c3ccccc23)cc1", "note": "[Compound 10]", "values": [{"measurement": "MIC", "setting": "[1]", "result": "> 100", "unit": "µM"}, {"measurement": "Log Reduction", "setting": "VRE; Dicloxacillin (10 μg/mL)", "result": 5}, {"measurement": "Log Reduction", "setting": "VRE; Norfloxacin (5 μg/mL)", "result": "5-6"}, {"measurement": "Log Reduction", "setting": "MRSA", "result": "4-5"}, {"measurement": "MIC", "setting": "[2]; MRSA (ATCC BAA-44), TABLE 21, read-out: MRSA MIC", "result": 16, "unit": "µM"}, {"measurement": "MIC", "setting": "[2]; MRSA isolate ATCC 33591, read-out: MIC", "result": 12.5, "unit": "µM"}, {"measurement": "MIC", "setting": "[2]; MRSA isolate ATCC BAA-44, read-out: MIC", "result": 8, "unit": "µM"}, {"measurement": "MIC", "setting": "[2]; MRSA isolate ATCC BAA-1707, read-out: MIC", "result": 12.5, "unit": "µM"}, {"measurement": "MIC", "setting": "[2]; MRSA isolate ATCC BAA-1717, read-out: MIC", "result": 6.3, "unit": "µM"}, {"measurement": "MIC", "setting": "[2]; MRSA isolate ATCC BAA-1720, read-out: MIC", "result": 6.3, "unit": "µM"}, {"measurement": "MIC", "setting": "[2]; MRSA isolate ATCC BAA-1747, read-out: MIC", "result": "12.5 to 25", "unit": "µM"}, {"measurement": "MIC", "setting": "[2]; MRSA isolate ATCC BAA-1754, read-out: MIC", "result": 50, "unit": "µM"}, {"measurement": "MIC", "setting": "[2]; MRSA isolate ATCC BAA-1761, read-out: MIC", "result": "> 100", "unit": "µM"}, {"measurement": "MIC", "setting": "[2]; MRSA isolate ATCC BAA-1763, read-out: MIC", "result": "50 to 100", "unit": "µM"}, {"measurement": "MIC", "setting": "[2]; MRSA isolate ATCC BAA-1764, read-out: MIC", "result": "> 100", "unit": "µM"}, {"measurement": "MIC", "setting": "[2]; MRSA isolate ATCC BAA-1766, read-out: MIC", "result": "25 to 50", "unit": "µM"}, {"measurement": "Resistance Evolved", "setting": "S. aureus (ATCC 29213)", "result": "No"}, {"measurement": "MIC", "setting": "S. aureus (ATCC 29213); Staphylococcus aureus, ATCC29213, read-out: Final MIC Apr. 16, 2015", "result": "16 to 32", "unit": "µM"}, {"measurement": "Synergy with Polymyxin B (Polypeptides)", "setting": "drug-resistant bacteria; A. baumannii ATCC 15151", "result": "Synergy"}, {"measurement": "Synergy with Polymyxin E (Polypeptides)", "setting": "drug-resistant bacteria; A. baumannii ATCC 15151", "result": "Synergy"}, {"measurement": "Synergy with Polymyxin B (Polypeptides)", "setting": "drug-resistant bacteria; CRE ATCC 1705", "result": "Synergy"}, {"measurement": "Synergy with Polymyxin E (Polypeptides)", "setting": "drug-resistant bacteria; CRE ATCC 1705", "result": "Synergy"}, {"measurement": "Synergy with Polymyxin B (Polypeptides)", "setting": "drug-resistant bacteria; CRE ATCC 2340", "result": "Synergy"}, {"measurement": "Synergy with Polymyxin E (Polypeptides)", "setting": "drug-resistant bacteria; CRE ATCC 2340", "result": "Synergy"}, {"measurement": "Synergy with Polymyxin B (Polypeptides)", "setting": "drug-resistant bacteria; CRE ATCC 2341", "result": "Synergy"}, {"measurement": "Synergy with Polymyxin E (Polypeptides)", "setting": "drug-resistant bacteria; CRE ATCC 2341", "result": "Synergy"}, {"measurement": "Synergy with Polymyxin B (Polypeptides)", "setting": "drug-resistant bacteria; CRE ATCC 2342", "result": "Synergy"}, {"measurement": "Synergy with Polymyxin E (Polypeptides)", "setting": "drug-resistant bacteria; CRE ATCC 2342", "result": "Synergy"}, {"measurement": "Synergy with Norfioxacin (Fluoroquinolones)", "setting": "drug-resistant bacteria; MRSA ATCC BAA-44", "result": "Synergy"}, {"measurement": "Synergy with Oxacillin (β-lactama)", "setting": "drug-resistant bacteria; MRSA ATCC BAA-44, *indicated ampicillin, dicloxicillin and Penicillin G", "result": "Synergy*"}, {"measurement": "Synergy with Polymyxin B (Polypeptides)", "setting": "drug-resistant bacteria; P. aeruginosa ATCC 27853", "result": "Synergy"}, {"measurement": "Synergy with Polymyxin E (Polypeptides)", "setting": "drug-resistant bacteria; P. aeruginosa ATCC 27853", "result": "Synergy"}, {"measurement": "Synergy with Norfioxacin (Fluoroquinolones)", "setting": "drug-resistant bacteria; VRE ATCC 51299", "result": "Synergy"}, {"measurement": "Synergy with Tetracycline (Tetracyclines)", "setting": "drug-resistant bacteria; VRE ATCC 51299", "result": "Synergy"}, {"measurement": "Synergy with Vancomycin (Glycopeptides)", "setting": "drug-resistant bacteria; VRE ATCC 51299", "result": "Synergy"}, {"measurement": "Synergy with β-lactama (Oxacillin column; cell says dicloxicillin)", "setting": "drug-resistant bacteria; VRE ATCC 51299, dicloxicillin", "result": "Synergy"}, {"measurement": "Co-treatment with PME: log reduction in the CFU/mL compared to PME alone", "setting": "P. aeruginosa", "result": "2-log reduction"}, {"measurement": "Co-treatment with PME: log reduction in the CFU/mL compared to PME alone", "setting": "P. aeruginosa; listed as compound 10", "result": "~2", "unit": "log reduction"}]}]}
